# In patent publication USRE34712E, “Pharmaceutically useful (+)-1-(3-dimethylaminopropyl)-1-(4'-fluorophenyl)-1,3-dihydroiso benzofuran-5-carbonitrile and non-toxic acid addition salts thereof” (priority 1988, dated 1994):
# How the values were obtained:
# [1] = system: effect of 5-HTP (5-HT syndrome); assay: 5-HTP-potentiation (5-HT syndrome in mice); type: in vivo; conditions: 5-HTP 100 mg/kg i.v. 30 minutes after test substance, log-probit analysis
# Protocol: The test evaluates the ability of the substance to potentiate the effect of 5-HTP, which results in development of 5-HT syndrome (Christensen, Fjalland, Pedersen, Danneskiold-Samsoe and Svendsen; European J. Pharmacol. 41, 153-162, 1977).
# Each treatment group consists of 3 mice, and two groups are treated with the highest test dose. A control group only treated with 5-HTP is included and a group treated with citalopram 10 mg/kg and 5-HTP is used as reference for full 5-HT syndrome.
# 30 minutes after the administration of the test substance, the other groups are given 5-HTP (100 mg/kg) i.v. (injection time 5-10 sec.). After this 5-HTP dose normal, untreated mice remain unaffected, but if the animals have been pretreated with a substance, which inhibits the uptake of 5-HT or a 5-HT agonist, a 5-HTP syndrome will occur. The symptoms are the same as previously described: (1) excitation, (2) tremor, and (3) abduction of the hind limbs. The animals are observed for 15 minutes and each animal is given one point for each symptom present. Again the result is stated in fractions: 0/9, 1/9, . . . 9/9, where 0, 1, . . . , 9 are the number of points per group after the dose in question. The ED50 value is calculated by log-probit analysis.
# depression in man = conditions: racemate, Ref. A. Gravem et al. 1987; cited from earlier work
# [2] = type: physicochemical
# Protocol: A 2:1 addition compound of the (+)-isomer with L(+)-tartaric acid was prepared in the following manner: 4 g of the (+)-isomer as base were dissolved in 100 ml of diethyl ether and extracted into 100 ml of water containing 0.8 g of L(+)-tartaric acid by stirring. The organic phase was separated and discarded. The water-phase was freeze-dried in vacuo (<0.1 mm Hg) for 18 hours leaving 3.8 g of a white powder of the title compound.
smiles,measurement,setting,value
"CN(C)CCCC1(c2ccc(F)cc2)OCc2cc(C#N)ccc21 (single isomer, unassigned; (+)) [(+)-citalopram, (+)-1-(3-Dimethylaminopropyl)-1-(4'-fluorophenyl)-1,3-dihydroisobenzofuran-5-carbonitrile]",5-HTP pot. ED50,[1],2.0 µmol/kg
"CN(C)CCCC1(c2ccc(F)cc2)OCc2cc(C#N)ccc21 (racemic) [(±)-citalopram, 1-(3-dimethylaminopropyl)-1-(4'-fluorophenyl)-1,3-dihydroisobenzofuran-5-carbonitrile, reference compound]",ED50,"[1]; Mus musculus, iv, 0.5 h, read-out: 5-HTP pot. ED50",3.3 µmol/kg
same,antidepressant efficacy in man,depression in man,efficient antidepressant compound in man
"CN(C)CCCC1(c2ccc(F)cc2)OCc2cc(C#N)ccc21 (single isomer, unassigned; (-)) [(-)-citalopram, (-)-1-(3-dimethylaminopropyl)-1-(4'-fluorophenyl)-1,3-dihydroisobenzofuran-5-carbonitrile]",5-HTP pot. ED50,[1],120 µmol/kg
"CN(C)CCCC1(c2ccc(F)cc2)OCc2cc(C#N)ccc21 (single isomer, unassigned) [2:1 addition compound of the (+)-isomer with L(+)-tartaric acid]",stability,[2],stable
same,hygroscopicity,[2]; freeze-dried white powder,not hygroscopic
